Laboratory results from patent publication US7189720B2 (H. Lundbeck A/S, priority 1999, dated 2007).
pKi: −log10 of the molar value. Read-outs that look alike come from different tables or passages of the source.

What was measured:
[1] = target: T1, human Y5 receptor (Homo sapiens, UniProt Q15761); experiment: Radioligand binding to membranes, cloned human Y5 receptor
T1 construct: expressed in transfected cells; host or cells: mouse fibroblast LM(tk-) cells, e.g. L-hY5-7 (ATCC CRL-11995)
T1 sequence (Q15761 1-445): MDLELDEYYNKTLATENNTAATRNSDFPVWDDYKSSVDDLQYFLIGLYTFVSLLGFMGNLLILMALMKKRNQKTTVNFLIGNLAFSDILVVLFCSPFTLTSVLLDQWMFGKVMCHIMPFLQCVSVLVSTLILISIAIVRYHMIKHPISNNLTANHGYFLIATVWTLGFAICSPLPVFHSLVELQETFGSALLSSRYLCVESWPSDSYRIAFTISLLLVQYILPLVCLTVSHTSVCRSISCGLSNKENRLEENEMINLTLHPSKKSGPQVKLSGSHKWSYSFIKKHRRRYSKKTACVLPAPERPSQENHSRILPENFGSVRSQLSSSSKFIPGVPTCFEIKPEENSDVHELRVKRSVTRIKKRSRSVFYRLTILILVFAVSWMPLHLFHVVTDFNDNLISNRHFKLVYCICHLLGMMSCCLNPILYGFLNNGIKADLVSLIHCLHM
Procedure: (§1) Binding of the compounds of the present invention to human Y1, Y2, Y4, and Y5 receptors was evaluated using stably transfected 293 or LM(tk-) cells as described above.
(§2) Membranes were harvested from COS-7 cells 48 hours after transient transfection. Adherent cells were washed twice in ice-cold phosphate buffered saline (138 mM NaCl, 8.1 mM Na2HPO4, 2.5 mM KCl, 1.2 mM KH2PO4, 0.9 mM CaCl2, 0.5 mM MgCl2, pH 7.4) and lysed by sonication in ice-cold sonication buffer (20 mM Tris-HCl, 5 mM EDTA, pH 7.7). Large particles and debris were cleared by low speed centrifugation (200×g, 5 min, 4° C.). Membranes were collected from the supernatant fraction by centrifugation (32,000×g, 18 min, 4° C.), washed with ice-cold hypotonic buffer, and collected again by centrifugation (32,000×g, 18 min, 4° C.). The final membrane pellet was resuspended by sonication into a small volume of ice-cold binding buffer (˜1 ml for every 5 plates: 10 mM NaCl, 20 mM HEPES, 0.22 mM KH2PO4, 1.26 mM CaCl2, 0.81 mM MgSO4, pH 7.4). Protein concentration was measured by the Bradford method (Bradford, 1976) using Bio-Rad Reagent, with bovine serum albumin as a standard. Membranes were held on ice for up to one hour and used fresh, or flash-frozen and stored in liquid nitrogen.
(§3) Membranes were prepared similarly from 293, LM(tk-), and NIH-3T3 cells.
(§4) Membrane suspensions were diluted in binding buffer supplemented with 0.1% bovine serum albumin to yield an optimal membrane protein concentration so that ^125I-PYY (or alternative radioligand such as ^125I-NPY, ^125I-NYY3-36, or ^125I-[Leu^31Pro^34]PYY) bound by membranes in the assay was less than 10% of ^125I-PYY (or alternative radioligand) delivered to the sample (100,000 dpm/sample=0.08 nM for competition binding assays). ^125I-PYY (or alternative radioligand) and peptide competitors were also diluted to desired concentrations in supplemented binding buffer. Individual samples were then prepared in 96-well polypropylene microtiter plates by mixing ^125I-PYY (25 μL) (or alternative radioligand), competing peptides or supplemented binding buffer (25 μL), and finally, membrane suspensions (200 μL). Samples were incubated in a 30° C. water bath with constant shaking for 120 min. Incubations were terminated by filtration over Whatman GF/C filters (pre-coated with 1% polyethyleneimine and air-dried before use), followed by washing with 5 mL of ice-cold binding buffer. Filter-trapped membranes were impregnated with MeltiLex solid scintillant (Wallac, Turku, Finland) and counted for ^125I in a Wallac Beta-Plate Reader. Alternatively, incubations were carried out in GF/C filter plates (pre-coated with 1% polyethyleneimine and air-dried before use), followed by vacuum filtration and three washes of 300 μL of ice-cold binding buffer. 50 μL of UltimaGold (Packard) scintillant were added and counted for ^125I, in a Wallac MicroBeta Trilux. Non-specific binding was defined by 300 nM human NPY for all receptors except the Y4 subtypes; 100 nM human PP was used for the human Y4 and 100 nM rat PP for the rat Y4.

[2] = target: T2, human Y1 receptor (Homo sapiens, UniProt P25929); experiment: Radioligand binding to membranes, cloned human Y1 receptor; conditions: hNPY-1 (one cell for Y1, Y2, Y4), read-out: Ki, nM hNPY-1,2,4
T2 construct: expressed in transfected cells; host or cells: human embryonic kidney 293 cells, e.g. 293-hY1-5 (ATCC CRL-12121)
T2 sequence (P25929 1-384): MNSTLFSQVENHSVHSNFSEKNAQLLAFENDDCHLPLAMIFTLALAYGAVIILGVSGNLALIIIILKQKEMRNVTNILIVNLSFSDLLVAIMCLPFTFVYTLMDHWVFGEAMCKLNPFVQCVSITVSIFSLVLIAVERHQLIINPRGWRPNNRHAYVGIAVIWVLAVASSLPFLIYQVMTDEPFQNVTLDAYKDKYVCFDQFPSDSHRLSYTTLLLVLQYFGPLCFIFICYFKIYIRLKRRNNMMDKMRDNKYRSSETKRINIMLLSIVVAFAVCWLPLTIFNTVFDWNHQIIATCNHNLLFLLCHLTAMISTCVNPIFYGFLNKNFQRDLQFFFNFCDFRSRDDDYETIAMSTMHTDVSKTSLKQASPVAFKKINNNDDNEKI
Procedure: as §1, §2, §3, §4

[3] = target: T3, human Y4 receptor (Homo sapiens, UniProt P50391); experiment: Radioligand binding to membranes, cloned human Y4 receptor; conditions: hNPY-4 (one cell for Y1, Y2, Y4), read-out: Ki, nM hNPY-1,2,4
T3 construct: expressed in transfected cells; host or cells: mouse fibroblast LM(tk-) cells, e.g. L-hY4-3 (ATCC CRL-11779)
Procedure: as §1, §2, §3, §4

[4] = target: T4, human Y2 receptor (Homo sapiens, UniProt P49146); experiment: Radioligand binding to membranes, cloned human Y2 receptor
T4 sequence (P49146 1-381): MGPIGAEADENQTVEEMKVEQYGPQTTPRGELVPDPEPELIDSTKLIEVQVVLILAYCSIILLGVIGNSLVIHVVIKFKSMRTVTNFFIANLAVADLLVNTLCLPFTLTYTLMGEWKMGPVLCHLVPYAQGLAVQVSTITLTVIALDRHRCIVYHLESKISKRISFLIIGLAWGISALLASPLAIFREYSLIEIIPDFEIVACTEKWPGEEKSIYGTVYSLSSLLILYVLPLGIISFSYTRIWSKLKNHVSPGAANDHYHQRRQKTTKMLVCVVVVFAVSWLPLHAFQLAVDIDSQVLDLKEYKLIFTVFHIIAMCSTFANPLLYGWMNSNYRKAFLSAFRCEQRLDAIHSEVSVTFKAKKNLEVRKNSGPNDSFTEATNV
Procedure: as §1, §2, §3, §4

[5] = Table 6, read-out: Ki, nM hNPY-5
[6] = Table 5, read-out: Ki, nM hNPY-5

T3 sequence (P50391 whole entry): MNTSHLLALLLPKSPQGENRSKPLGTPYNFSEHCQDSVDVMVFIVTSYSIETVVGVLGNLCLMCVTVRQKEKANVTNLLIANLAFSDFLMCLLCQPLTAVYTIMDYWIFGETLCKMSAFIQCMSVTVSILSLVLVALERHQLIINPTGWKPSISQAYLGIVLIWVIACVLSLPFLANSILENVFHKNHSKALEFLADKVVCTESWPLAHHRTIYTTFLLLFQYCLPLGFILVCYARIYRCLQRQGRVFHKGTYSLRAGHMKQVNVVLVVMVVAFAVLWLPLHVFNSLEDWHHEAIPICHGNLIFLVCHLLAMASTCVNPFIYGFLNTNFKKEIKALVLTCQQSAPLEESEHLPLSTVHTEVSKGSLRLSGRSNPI

Row | Structure (SMILES) | Ki [1, 5] | Ki ([2]; Table 6) | Ki ([3]; Table 6) | pKi [4] | Ki [1, 6] | Ki ([2]; Table 5) | Ki ([3]; Table 5) | Ki ([1]; Table 3, read-out: Ki (nM) hNPY-5)
1 | CN(C)S(=O)(=O)NCCCCCNc1nc(-c2ccsc2)cs1 [Example 82, N,N-Dimethyl-N′-(5-{[4-(3-Thienyl)-1,3-thiazol-2-yl]amino}pentyl)sulfamide] |  |  |  | < 5.00 | 8.3 nM | > 10000 nM | > 10000 nM | 
2 | O=S(=O)(NC[C@H]1CC[C@H](Nc2nc(-c3cc(-c4ccccc4)no3)cs2)CC1)c1cccc2cccnc12 [Example 81, trans-N8-[(4-{[4-(3-Phenyl-5-isoxazolyl)-1,3-thiazol-2-yl]amino}cyclohexyl)methyl]-8-quinolinesulfonamide] |  |  |  | < 5.00 | 155 nM | > 10000 nM | > 10000 nM | 
3 | COc1ccc(C)cc1S(=O)(=O)NCCCCCNc1nc2c(s1)CCSc1ccc(F)cc1-2 [Example 160, N1-{5-[(9-Fluoro-4,5-dihydrobenzo[2,3]thiepino[4,5-d][1,3]thiazol-2-yl)amino]pentyl}-2-methoxy-5-methyl-1-benzenesulfonamide] | 2.8 nM | > 10000 nM | > 10000 nM | < 5.00 |  |  |  | 
4 | CS(=O)(=O)NCCCCCNc1nc2c(s1)CCSc1ccc(F)cc1-2 [Example 159, N-{5-[(9-Fluoro-4,5-dihydrobenzo[2,3]thiepino[4,5-d][1,3]thiazol-2-yl)amino]pentyl}methanesulfonamide] | 6.1 nM | > 10000 nM | > 10000 nM | < 5.00 |  |  |  | 
5 | Cc1cccc(F)c1S(=O)(=O)NC[C@H]1CC[C@H](Nc2nc3c(s2)CCSc2ccccc2-3)CC1 [Example 158, N1-{[4-(4,5-Dihydrobenzo[2,3]thiepino[4,5-d][1,3]thiazol-2-ylamino)cyclohexyl]methyl}-2-fluoro-6-methyl-1-benzenesulfonamide] | 8.2 nM | > 10000 nM | > 10000 nM | < 5.00 |  |  |  | 
6 | COc1ccc(C)cc1S(=O)(=O)NCCCCCNc1nc(-c2sc3ccc(Cl)cc3c2C)cs1 [Example 77, N1-(5-{[4-(5-Chloro-3-methylbenzo[b]thiophen-2-yl)-1,3-thiazol-2-yl]amino}pentyl)-2-methoxy-5-methyl-1-benzenesulfonamide] |  |  |  | < 5.00 | 297 nM | > 10000 nM | > 10000 nM | 
7 | O=S(=O)(NCCCCCNc1nc2c(s1)CCSc1ccc(F)cc1-2)c1ccccc1F [Example 161, N1-{5-[(9-Fluoro-4,5-dihydrobenzo[2,3]thiepino[4,5-d][1,3]thiazol-2-yl)amino]pentyl}-2-fluoro-1-benzenesulfonamide] | 4.9 nM | > 10000 nM | > 10000 nM | < 5.00 |  |  |  | 
8 | COc1ccc(C)cc1S(=O)(=O)NCCCCCNc1nc(-c2cccnc2)cs1 [Example 72, 2-(5-(2-Methoxy-5-methyl)phenylsulfonylamino)pentylamino-4-(3-pyridyl)thiazole hydrogen chloride] |  |  |  | < 5.00 | 50 nM | > 10000 nM | > 10000 nM | 
9 | CCN(CC)S(=O)(=O)NCCCCCNc1nc(-c2ccccn2)cs1 [Example 59, 2-(5-Diethylaminosulfonylamino)pentylamino-4-(2-pyridyl)-thiazole hydrogen chloride] |  |  |  | < 5.00 |  | > 10000 nM | > 10000 nM | 
10 | CN(C)S(=O)(=O)NCC1CCC(CNc2nc(Cl)nc(Cl)n2)CC1 (stereo not drawn) [Example 53, N′-((4-(((4,6-dichloro-1,3,5-triazin-2-yl)amino)methyl)cyclohexyl)methyl)-N,N-dimethylsulfamide] |  |  |  |  |  |  |  | 20700 nM
11 | O=S(=O)(NC[C@H]1CC[C@H](Nc2nc3c(s2)CCSc2ccccc2-3)CC1)c1ccc(F)cc1F [Example 151, N1-{[4-(4,5-Dihydrobenzo[2,3]thiepino[4,5-d][1,3]thiazol-2-ylamino)cyclohexyl]methyl}-2,4-difluoro-1-benzenesulfonamide] | 7.9 nM |  |  |  |  |  |  | 

The next lines start with the values.

Row | Ki [1, 5] | Ki ([2]; Table 6) | Ki ([3]; Table 6) | pKi [4] | Ki [1, 6] | Ki ([2]; Table 5) | Ki ([3]; Table 5) | Ki ([1]; Table 3, read-out: Ki (nM) hNPY-5) | Structure (SMILES)
12 | 4.8 nM | > 10000 nM | > 10000 nM | < 5.00 |  |  |  |  | O=S(=O)(NCCCCCNc1nc2c(s1)CCSc1ccc(F)cc1-2)c1cccs1 [Example 162, N2-{5-[(9-Fluoro-4,5-dihydrobenzo[2,3]thiepino[4,5-d][1,3]thiazol-2-yl)amino]pentyl}-2-thiophenesulfonamide]
13 |  |  |  | < 5.00 | 204 nM | > 10000 nM | > 10000 nM |  | O=S(=O)(NCCCCCNc1nc(-c2ccncc2)cs1)c1ccccc1F [Example 73, 2-(5-(2-Fluoro)phenylsulfonylamino)pentylamino-4-(4-pyridyl)thiazole hydrogen chloride]
14 |  |  |  | < 5.00 | 545 nM | > 10000 nM | > 10000 nM |  | COc1ccc(C)cc1S(=O)(=O)NCCCCCNc1nc(-c2ccsc2)cs1 [Example 79, N1-(5-{[4-(3-Thienyl)-1,3-thiazol-2-yl]amino}pentyl)-2-methoxy-5-methyl-1-benzenesulfonamide]
15 | 5.1 nM | > 10000 nM | > 10000 nM | < 5.00 |  |  |  |  | CCS(=O)(=O)NC[C@H]1CC[C@H](Nc2nc3c(s2)CCSc2ccccc2-3)CC1 [Example 107, N1-{[4-(4,5-Dihydrobenzo[2,3]thiepino[4,5-d][1,3]thiazol-2-ylamino)cyclohexyl]methyl}-1-ethanesulfonamide]
16 |  |  |  | < 5.00 | 5 nM | > 10000 nM | > 10000 nM |  | COc1ccc(C)cc1S(=O)(=O)NCCCCCNc1nc(-c2ccncc2)cs1 [Example 75, 2-(5-(2-Methoxy-5-methyl)phenylsulfonylamino)pentylamino-4-(4-pyridyl)thiazole hydrogen chloride]
17 | 2.9 nM | > 10000 nM | > 10000 nM | < 5.00 |  |  |  |  | O=S(=O)(NCCCCCCNc1nc2c(s1)CCSc1ccccc1-2)c1cccs1 [Example 106]
18 | 2.6 nM | > 10000 nM | > 10000 nM | < 5.00 |  |  |  |  | O=S(=O)(NCCCCCNc1nc2c(s1)CCSc1ccccc1-2)c1cccs1 [Example 110, N2-[5-(4,5-Dihydrobenzo[2,3]thiepino[4,5-d][1,3]thiazol-2-ylamino)pentyl]-2-thiophenesulfonamide]
19 |  |  |  | < 5.00 | 11 nM | > 10000 nM | > 10000 nM |  | COc1ccc(C)cc1S(=O)(=O)NCCCCCNc1nc(-c2cc3ccccc3s2)cs1 [Example 76, N1-{5-[(4-Benzo[b]thiophen-2-yl-1,3-thiazol-2-yl)amino]-pentyl}-2-methoxy-5-methyl-1-benzenesulfonamide]
20 |  |  |  | < 5.00 | 37 nM | > 10000 nM | > 10000 nM |  | Cc1noc(C)c1S(=O)(=O)NCCCCCNc1nc(-c2cccnc2)cs1 [Example 71, 2-(5-(3,5-Dimethylisoxazol-4-yl)sulfonylamino)pentylamino-4-(3-pyridyl)thiazole hydrogen chloride]
21 |  |  |  | < 5.00 | 745 nM | > 10000 nM | > 10000 nM |  | Cc1noc(C)c1S(=O)(=O)NCCCCCNc1nc(-c2ccncc2)cs1 [Example 74, 2-(5-(3,5-Dimethylisoxazol-4-yl)sulfonylamino)pentylamino-4-(4-pyridyl)thiazole hydrogen chloride]
22 |  |  |  | < 5.00 | 40 nM | > 10000 nM | > 10000 nM |  | COc1ccc(C)cc1S(=O)(=O)NCCCCCNc1nc(-c2ccn(S(=O)(=O)c3ccccc3)c2)cs1 [Example 80, N1-[5-({4-[1-(Phenylsulfonyl)-1H-3-pyrrolyl]-1,3-thiazol-2-yl}amino)pentyl]-2-methoxy-5-methyl-1-benzenesulfonamide]
